Data on one compound can be found in patent US6300320A, “Modulation of c-jun using inhibitors of protein kinase C” (Isis Pharmaceuticals, Inc., priority 1999, dated 2001).

For this experiment, the system named is c-jun mRNA expression in A549 cells. The experiment in a line: Phorbol ester (TPA) mediated AP-1 gene expression in A549 cells, Northern blotting. Format: cell-based. The settings on record: Homo sapiens, 0.5 h, 100 nM TPA for 30 minutes, no oligo, basal = 100%. The procedure: The effect of PKC-α reduction on AP-1 transcription factor components was determined. 12-O-tetradecanoylphorbol-13-acetate (TPA) causes a time dependent accumulation of mRNA transcripts of multiple members of AP-1, including c-jun, jun-B and c-fos.
A549 cells were treated with 100 nM ISIS 9606 (SEQ ID NO. 2) or ISIS 13009 (SEQ ID NO. 23) and DOTMA/DOPE as described in Example 13. Cells were then washed and allowed to recover for an additional 68 hours. Cells were then treated with 100 nM TPA for 30 minutes and the expression of either c-fos, jun-B, c-jun or G3PDH mRNA expression was determined by Northern blotting.
Total RNA was extracted from cells and resolved on agarose gels as described in Example 6. These were transferred to nylon membrane (Biorad, Hercules, Calif.) and probed with ^32 P radiolabelled cDNA probes for different PKC isozymes. Additionally, gels were probed with ^32 P radiolabelled cDNA probes for c-fos, c-jun, and junB (American Type Culture Collection, Manassas, Va.). Gels were routinely stripped and reprobed with radiolabelled human […]-3-phosphate dehydrogenase (G3PDH) probe to confirm equal loading. Radioactive bands were quantified using a Phospholmager (Molecular Dynamics, Sunnyvale, Calif.). […] A scrambled control oligonucleotide was without effect on the up-regulation of any AP-1 family member. […]

In the case of `CCCCCCCCCCCCCC(=O)O[C@@H]1[C@@H](C)[C@@]2(O)[C@@H](C=C(CO)C[C@]3(O)C(=O)C(C)=C[C@@H]23)[C@@H]2C(C)(C)[C@]12OC(C)=O` [TPA, 12-O-tetradecanoylphorbol-13-acetate], the activity at 0.1 µM was 353%.
